PMC12121777 (PLOS One, 2025)
Values after ≈ are worked out from the molar mass of the structure shown. Read-outs that look alike come from different tables or passages of the source.

Legend:
Assay in all cases: microbe, parasite or virus in culture
Type in all cases: cell-based
Mtb Praha 1 = details: Mycobacterium tuberculosis, read-out: MIC Mtb Praha 1
Mtb Praha 4 = details: Mycobacterium tuberculosis, read-out: MIC Mtb Praha 4
Mtb Praha 131 = details: Mycobacterium tuberculosis, read-out: MIC Mtb Praha 131
Mtb 234/2005 = details: Mycobacterium tuberculosis, read-out: MIC Mtb 234/2005
Mtb 9449/2007 = details: Mycobacterium tuberculosis, read-out: MIC Mtb 9449/2007
Mtb 7357/1998 = details: Mycobacterium tuberculosis, read-out: MIC Mtb 7357/1998
Mtb 8666/2010 = details: Mycobacterium tuberculosis, read-out: MIC Mtb 8666/2010

SMILES | MIC (Mtb Praha 1; PRAHA1, 336 h) [µM] | MIC (Mtb Praha 1; PRAHA1, 504 h) [µM] | MIC (Mtb Praha 4; PRAHA4, 336 h) [µM] | MIC (Mtb Praha 4; PRAHA4, 504 h) [µM] | MIC (Mtb Praha 131; PRAHA131, 336 h) [µM] | MIC (Mtb Praha 131; PRAHA131, 504 h) [µM] | MIC (Mtb 234/2005; 234/2005, 336 h) [µM] | MIC (Mtb 234/2005; 234/2005, 504 h) [µM] | MIC (Mtb 9449/2007; 9449/2007, 336 h) [µM] | MIC (Mtb 9449/2007; 9449/2007, 504 h) [µM] | MIC (Mtb 7357/1998; 7357/1998, 336 h) [µM] | MIC (Mtb 7357/1998; 7357/1998, 504 h) [µM] | MIC (Mtb 8666/2010; 8666/2010, 336 h) [µM] | MIC (Mtb 8666/2010; 8666/2010, 504 h) [µM]
CCCCCCCNC(=O)NNC(=O)c1cc([N+](=O)[O-])cc([N+](=O)[O-])c1 [Compound 4g, 2-(3,5-Dinitrobenzoyl)-N-heptylhydrazine-1-carboxamide] | 1 (≈ 0.367 µg/mL) | 2 (≈ 0.735 µg/mL) | 1 (≈ 0.367 µg/mL) | 1 (≈ 0.367 µg/mL) | 1 (≈ 0.367 µg/mL) | 2 (≈ 0.735 µg/mL) | 1 (≈ 0.367 µg/mL) | 2 (≈ 0.735 µg/mL) | 1 (≈ 0.367 µg/mL) | 1 (≈ 0.367 µg/mL) | 1 (≈ 0.367 µg/mL) | 1 (≈ 0.367 µg/mL) | 1 (≈ 0.367 µg/mL) | 1 (≈ 0.367 µg/mL)
CCCCCCCCNC(=O)NNC(=O)c1cc([N+](=O)[O-])cc([N+](=O)[O-])c1 [Compound 4h, 2-(3,5-Dinitrobenzoyl)-N-octylhydrazine-1-carboxamide] | 1 (≈ 0.381 µg/mL) | 1 (≈ 0.381 µg/mL) | 1 (≈ 0.381 µg/mL) | 1 (≈ 0.381 µg/mL) | 1 (≈ 0.381 µg/mL) | 1 (≈ 0.381 µg/mL) | 1 (≈ 0.381 µg/mL) | 1 (≈ 0.381 µg/mL) | 1 (≈ 0.381 µg/mL) | 1 (≈ 0.381 µg/mL) | 1 (≈ 0.381 µg/mL) | 1 (≈ 0.381 µg/mL) | 1 (≈ 0.381 µg/mL) | 1 (≈ 0.381 µg/mL)
CCCCCCCCCNC(=O)NNC(=O)c1cc([N+](=O)[O-])cc([N+](=O)[O-])c1 [Compound 4i, 2-(3,5-Dinitrobenzoyl)-N-nonylhydrazine-1-carboxamide] | 1 (≈ 0.395 µg/mL) | 2 (≈ 0.791 µg/mL) | 1 (≈ 0.395 µg/mL) | 1 (≈ 0.395 µg/mL) | 1 (≈ 0.395 µg/mL) | 2 (≈ 0.791 µg/mL) | 1 (≈ 0.395 µg/mL) | 2 (≈ 0.791 µg/mL) | 1 (≈ 0.395 µg/mL) | 1 (≈ 0.395 µg/mL) | 1 (≈ 0.395 µg/mL) | 1 (≈ 0.395 µg/mL) | 1 (≈ 0.395 µg/mL) | 1 (≈ 0.395 µg/mL)
CCCCCCCCCCCCNC(=S)NNC(=O)c1cc([N+](=O)[O-])cc([N+](=O)[O-])c1 [Compound 4s, 2-(3,5-Dinitrobenzoyl)-N-dodecylhydrazine-1-carbothioamide] | 2 (≈ 0.907 µg/mL) | 2 (≈ 0.907 µg/mL) | 2 (≈ 0.907 µg/mL) | 2 (≈ 0.907 µg/mL) | 2 (≈ 0.907 µg/mL) | 4 (≈ 1.81 µg/mL) | 2 (≈ 0.907 µg/mL) | 4 (≈ 1.81 µg/mL) | 2 (≈ 0.907 µg/mL) | 2 (≈ 0.907 µg/mL) | 1 (≈ 0.454 µg/mL) | 2 (≈ 0.907 µg/mL) | 1 (≈ 0.454 µg/mL) | 2 (≈ 0.907 µg/mL)
CCCCNc1nnc(-c2cc([N+](=O)[O-])cc([N+](=O)[O-])c2)o1 [Compound 5d, N-Butyl-5-(3,5-dinitrophenyl)-1,3,4-oxadiazol-2-amine] | 1 (≈ 0.307 µg/mL) | 1 (≈ 0.307 µg/mL) | 0.5 (≈ 0.154 µg/mL) | 1 (≈ 0.307 µg/mL) | 0.5 (≈ 0.154 µg/mL) | 1 (≈ 0.307 µg/mL) | 0.5 (≈ 0.154 µg/mL) | 1 (≈ 0.307 µg/mL) | 0.5 (≈ 0.154 µg/mL) | 0.5 (≈ 0.154 µg/mL) | 0.5 (≈ 0.154 µg/mL) | 1 (≈ 0.307 µg/mL) | 0.5 (≈ 0.154 µg/mL) | 0.5 (≈ 0.154 µg/mL)
CCCCCNc1nnc(-c2cc([N+](=O)[O-])cc([N+](=O)[O-])c2)o1 [Compound 5e, 5-(3,5-Dinitrophenyl)-N-pentyl-1,3,4-oxadiazol-2-amine] | 0.125 (≈ 0.0402 µg/mL) | 0.25 (≈ 0.0803 µg/mL) | 0.125 (≈ 0.0402 µg/mL) | 0.5 (≈ 0.161 µg/mL) | 0.125 (≈ 0.0402 µg/mL) | 0.125 (≈ 0.0402 µg/mL) | 0.125 (≈ 0.0402 µg/mL) | 0.125 (≈ 0.0402 µg/mL) | 0.125 (≈ 0.0402 µg/mL) | 0.125 (≈ 0.0402 µg/mL) | 0.125 (≈ 0.0402 µg/mL) | 0.125 (≈ 0.0402 µg/mL) | 0.125 (≈ 0.0402 µg/mL) | 0.125 (≈ 0.0402 µg/mL)
CCCCCCNc1nnc(-c2cc([N+](=O)[O-])cc([N+](=O)[O-])c2)o1 [Compound 5f, 5-(3,5-Dinitrophenyl)-N-hexyl-1,3,4-oxadiazol-2-amine] | ≤ 0.03 | ≤ 0.03 | ≤ 0.03 | ≤ 0.03 | ≤ 0.03 | ≤ 0.03 | ≤ 0.03 | ≤ 0.03 | ≤ 0.03 | ≤ 0.03 | ≤ 0.03 | ≤ 0.03 | ≤ 0.03 | ≤ 0.03
CCCCCCCNc1nnc(-c2cc([N+](=O)[O-])cc([N+](=O)[O-])c2)o1 [Compound 5g, 5-(3,5-Dinitrophenyl)-N-heptyl-1,3,4-oxadiazol-2-amine] | 0.06 (≈ 0.021 µg/mL) | 0.06 (≈ 0.021 µg/mL) | 0.06 (≈ 0.021 µg/mL) | 0.06 (≈ 0.021 µg/mL) | 0.06 (≈ 0.021 µg/mL) | 0.06 (≈ 0.021 µg/mL) | 0.06 (≈ 0.021 µg/mL) | 0.06 (≈ 0.021 µg/mL) | ≤ 0.03 | 0.06 (≈ 0.021 µg/mL) | 0.06 (≈ 0.021 µg/mL) | 0.06 (≈ 0.021 µg/mL) | ≤ 0.03 | 0.06 (≈ 0.021 µg/mL)
CCCCCCCCNc1nnc(-c2cc([N+](=O)[O-])cc([N+](=O)[O-])c2)o1 [Compound 5h, 5-(3,5-Dinitrophenyl)-N-octyl-1,3,4-oxadiazol-2-amine] | 0.125 (≈ 0.0454 µg/mL) | 0.125 (≈ 0.0454 µg/mL) | 0.125 (≈ 0.0454 µg/mL) | 0.125 (≈ 0.0454 µg/mL) | 0.125 (≈ 0.0454 µg/mL) | 0.125 (≈ 0.0454 µg/mL) | 0.125 (≈ 0.0454 µg/mL) | 0.125 (≈ 0.0454 µg/mL) | 0.06 (≈ 0.0218 µg/mL) | 0.125 (≈ 0.0454 µg/mL) | 0.125 (≈ 0.0454 µg/mL) | 0.125 (≈ 0.0454 µg/mL) | 0.06 (≈ 0.0218 µg/mL) | 0.125 (≈ 0.0454 µg/mL)
CCCCCCCCCNc1nnc(-c2cc([N+](=O)[O-])cc([N+](=O)[O-])c2)o1 [Compound 5i, 5-(3,5-Dinitrophenyl)-N-nonyl-1,3,4-oxadiazol-2-amine] | 0.125 (≈ 0.0472 µg/mL) | 0.125 (≈ 0.0472 µg/mL) | 0.125 (≈ 0.0472 µg/mL) | 0.125 (≈ 0.0472 µg/mL) | 0.06 (≈ 0.0226 µg/mL) | 0.06 (≈ 0.0226 µg/mL) | 0.125 (≈ 0.0472 µg/mL) | 0.125 (≈ 0.0472 µg/mL) | 0.06 (≈ 0.0226 µg/mL) | 0.06 (≈ 0.0226 µg/mL) | 0.125 (≈ 0.0472 µg/mL) | 0.125 (≈ 0.0472 µg/mL) | 0.06 (≈ 0.0226 µg/mL) | 0.06 (≈ 0.0226 µg/mL)
CCCCCCCCCCNc1nnc(-c2cc([N+](=O)[O-])cc([N+](=O)[O-])c2)o1 [Compound 5j, N-Decyl-5-(3,5-dinitrophenyl)-1,3,4-oxadiazol-2-amine] | 0.25 (≈ 0.0979 µg/mL) | 0.5 (≈ 0.196 µg/mL) | 0.25 (≈ 0.0979 µg/mL) | 0.5 (≈ 0.196 µg/mL) | 0.25 (≈ 0.0979 µg/mL) | 0.5 (≈ 0.196 µg/mL) | 0.25 (≈ 0.0979 µg/mL) | 0.5 (≈ 0.196 µg/mL) | 0.25 (≈ 0.0979 µg/mL) | 0.5 (≈ 0.196 µg/mL) | 0.25 (≈ 0.0979 µg/mL) | 0.5 (≈ 0.196 µg/mL) | 0.25 (≈ 0.0979 µg/mL) | 0.5 (≈ 0.196 µg/mL)
CCCCCCCCCCCNc1nnc(-c2cc([N+](=O)[O-])cc([N+](=O)[O-])c2)o1 [Compound 5k, 5-(3,5-Dinitrophenyl)-N-undecyl-1,3,4-oxadiazol-2-amine] | 0.25 (≈ 0.101 µg/mL) | 0.5 (≈ 0.203 µg/mL) | 0.25 (≈ 0.101 µg/mL) | 0.5 (≈ 0.203 µg/mL) | 0.25 (≈ 0.101 µg/mL) | 0.5 (≈ 0.203 µg/mL) | 0.25 (≈ 0.101 µg/mL) | 0.5 (≈ 0.203 µg/mL) | 0.25 (≈ 0.101 µg/mL) | 0.5 (≈ 0.203 µg/mL) | 0.25 (≈ 0.101 µg/mL) | 0.5 (≈ 0.203 µg/mL) | 0.25 (≈ 0.101 µg/mL) | 0.5 (≈ 0.203 µg/mL)
CCCCCCCCCCCCNc1nnc(-c2cc([N+](=O)[O-])cc([N+](=O)[O-])c2)o1 [Compound 5l, 5-(3,5-Dinitrophenyl)-N-dodecyl-1,3,4-oxadiazol-2-amine] | 0.25 (≈ 0.105 µg/mL) | 0.5 (≈ 0.21 µg/mL) | 0.25 (≈ 0.105 µg/mL) | 0.5 (≈ 0.21 µg/mL) | 0.25 (≈ 0.105 µg/mL) | 0.5 (≈ 0.21 µg/mL) | 0.25 (≈ 0.105 µg/mL) | 0.5 (≈ 0.21 µg/mL) | 0.25 (≈ 0.105 µg/mL) | 0.5 (≈ 0.21 µg/mL) | 0.5 (≈ 0.21 µg/mL) | 0.5 (≈ 0.21 µg/mL) | 0.25 (≈ 0.105 µg/mL) | 0.5 (≈ 0.21 µg/mL)
CCCCCCCCCCCCCNc1nnc(-c2cc([N+](=O)[O-])cc([N+](=O)[O-])c2)o1 [Compound 5m, 5-(3,5-Dinitrophenyl)-N-tridecyl-1,3,4-oxadiazol-2-amine] | 0.125 (≈ 0.0542 µg/mL) | 0.125 (≈ 0.0542 µg/mL) | 0.06 (≈ 0.026 µg/mL) | 0.125 (≈ 0.0542 µg/mL) | 0.125 (≈ 0.0542 µg/mL) | 0.125 (≈ 0.0542 µg/mL) | 0.125 (≈ 0.0542 µg/mL) | 0.125 (≈ 0.0542 µg/mL) | 0.06 (≈ 0.026 µg/mL) | 0.125 (≈ 0.0542 µg/mL) | 0.25 (≈ 0.108 µg/mL) | 0.25 (≈ 0.108 µg/mL) | 0.06 (≈ 0.026 µg/mL) | 0.125 (≈ 0.0542 µg/mL)
CCCCCCCCCCCCNc1nnc(-c2cc([N+](=O)[O-])cc([N+](=O)[O-])c2)s1 [Compound 5s, 5-(3,5-Dinitrophenyl)-N-dodecyl-1,3,4-thiadiazol-2-amine] | 1 (≈ 0.436 µg/mL) | 1 (≈ 0.436 µg/mL) | 1 (≈ 0.436 µg/mL) | 1 (≈ 0.436 µg/mL) | 1 (≈ 0.436 µg/mL) | 1 (≈ 0.436 µg/mL) | 0.5 (≈ 0.218 µg/mL) | 1 (≈ 0.436 µg/mL) | 1 (≈ 0.436 µg/mL) | 2 (≈ 0.871 µg/mL) | 0.5 (≈ 0.218 µg/mL) | 1 (≈ 0.436 µg/mL) | 0.5 (≈ 0.218 µg/mL) | 1 (≈ 0.436 µg/mL)
COc1ccc(CNc2nnc(-c3cc([N+](=O)[O-])cc([N+](=O)[O-])c3)o2)cc1 [Compound 7b, 5-(3,5-Dinitrophenyl)-N-(4-methoxybenzyl)-1,3,4-oxadiazol-2-amine] | ≤ 0.03 | ≤ 0.03 | ≤ 0.03 | ≤ 0.03 | ≤ 0.03 | ≤ 0.03 | ≤ 0.03 | 0.06 (≈ 0.0223 µg/mL) | ≤ 0.03 | ≤ 0.03 | ≤ 0.03 | ≤ 0.03 | ≤ 0.03 | ≤ 0.03
